From paper doi:10.1101/2021.04.08.439011v1 (biorxiv, 2021)
Where two headings read alike, the source gives them in different places.

What was measured:
[1] = molecular target: TSSK3 (Homo sapiens, UniProt Q96PN8); settings: 0.1 µM; binder
[2] = molecular target: JNK2 (Homo sapiens, UniProt P45984); settings: 0.1 µM; binder
[3] = molecular target: SRMS (Homo sapiens, UniProt Q9H3Y6); settings: 0.1 µM; binder
[4] = molecular target: SRPK1 (Homo sapiens, UniProt Q96SB4); settings: 0.1 µM; binder
[5] = molecular target: IKK-epsilon (Homo sapiens, UniProt Q14164); settings: 0.1 µM; binder
Chain of IKK-epsilon (Q14164 whole entry): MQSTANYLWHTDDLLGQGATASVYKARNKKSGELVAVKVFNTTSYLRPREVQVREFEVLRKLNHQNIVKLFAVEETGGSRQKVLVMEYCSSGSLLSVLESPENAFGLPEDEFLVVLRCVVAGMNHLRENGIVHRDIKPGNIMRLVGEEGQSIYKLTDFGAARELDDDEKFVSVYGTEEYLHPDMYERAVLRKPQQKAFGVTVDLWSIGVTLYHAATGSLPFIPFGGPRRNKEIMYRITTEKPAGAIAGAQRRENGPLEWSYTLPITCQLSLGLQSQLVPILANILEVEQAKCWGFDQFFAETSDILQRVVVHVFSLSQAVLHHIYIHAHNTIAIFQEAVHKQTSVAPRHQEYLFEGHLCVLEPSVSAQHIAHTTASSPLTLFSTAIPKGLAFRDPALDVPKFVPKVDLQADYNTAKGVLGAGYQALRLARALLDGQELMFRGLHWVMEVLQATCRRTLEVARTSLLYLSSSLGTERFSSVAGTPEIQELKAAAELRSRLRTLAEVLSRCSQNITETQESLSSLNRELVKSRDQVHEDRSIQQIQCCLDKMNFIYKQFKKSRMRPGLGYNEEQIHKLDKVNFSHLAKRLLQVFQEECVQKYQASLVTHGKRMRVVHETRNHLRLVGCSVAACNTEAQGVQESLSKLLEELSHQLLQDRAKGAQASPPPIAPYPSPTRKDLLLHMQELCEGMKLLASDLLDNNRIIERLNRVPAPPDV

[6] = molecular target: HIPK2 (Homo sapiens, UniProt Q9H2X6); settings: 0.1 µM; binder
[7] = molecular target: DCAMKL3 (Homo sapiens, UniProt Q9C098); settings: 0.1 µM; binder
[8] = molecular target: ABL1(Q252H) (Homo sapiens, UniProt P00519, Q252H); settings: 0.1 µM, binder
[9] = molecular target: EPHA2 (Homo sapiens, UniProt P29317); settings: 0.1 µM; binder
[10] = molecular target: BLK (Homo sapiens, UniProt P51451); settings: 0.1 µM; binder
Chain of BLK (P51451 whole entry): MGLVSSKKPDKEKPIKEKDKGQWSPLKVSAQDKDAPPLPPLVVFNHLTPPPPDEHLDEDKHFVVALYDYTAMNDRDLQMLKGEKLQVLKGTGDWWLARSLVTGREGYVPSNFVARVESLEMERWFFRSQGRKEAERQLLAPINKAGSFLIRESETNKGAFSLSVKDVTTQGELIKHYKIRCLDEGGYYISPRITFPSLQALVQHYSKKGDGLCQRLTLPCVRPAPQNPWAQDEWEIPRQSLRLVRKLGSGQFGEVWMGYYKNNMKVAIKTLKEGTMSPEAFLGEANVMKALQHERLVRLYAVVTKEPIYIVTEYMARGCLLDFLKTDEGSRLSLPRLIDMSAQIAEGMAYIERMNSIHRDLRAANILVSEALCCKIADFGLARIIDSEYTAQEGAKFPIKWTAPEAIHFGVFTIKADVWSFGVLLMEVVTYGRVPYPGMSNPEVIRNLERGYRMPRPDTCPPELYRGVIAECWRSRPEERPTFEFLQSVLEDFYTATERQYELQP

[11] = molecular target: FGR (Homo sapiens, UniProt P09769); settings: 0.1 µM; binder
[12] = molecular target: ABL1(M351T) (Homo sapiens, UniProt P00519, M351T); settings: phosphorylated; 0.1 µM; binder
[13] = molecular target: DAPK2 (Homo sapiens, UniProt Q9UIK4); settings: 0.1 µM; binder
[14] = molecular target: DCAMKL2 (Homo sapiens, UniProt Q8N568); settings: 0.1 µM; binder
[15] = molecular target: CDK8 (Homo sapiens, UniProt P49336); settings: 0.1 µM; binder
Chain of CDK8 (P49336 whole entry): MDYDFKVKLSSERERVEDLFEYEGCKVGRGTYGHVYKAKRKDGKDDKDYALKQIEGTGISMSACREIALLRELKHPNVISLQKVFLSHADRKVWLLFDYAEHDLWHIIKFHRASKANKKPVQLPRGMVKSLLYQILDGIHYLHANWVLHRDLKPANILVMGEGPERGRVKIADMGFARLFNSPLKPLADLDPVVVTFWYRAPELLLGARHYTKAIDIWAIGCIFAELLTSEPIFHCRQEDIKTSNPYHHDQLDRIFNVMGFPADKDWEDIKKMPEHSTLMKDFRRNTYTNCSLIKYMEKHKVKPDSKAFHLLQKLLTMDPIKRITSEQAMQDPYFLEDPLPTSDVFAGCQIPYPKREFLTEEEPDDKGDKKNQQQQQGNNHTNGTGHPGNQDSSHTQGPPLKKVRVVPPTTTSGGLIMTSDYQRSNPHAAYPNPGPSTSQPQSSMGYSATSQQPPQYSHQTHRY

[16] = molecular target: MST2 (Homo sapiens, UniProt Q13188); settings: 0.1 µM; binder
[17] = molecular target: TRKB (Homo sapiens, UniProt Q16620); settings: 0.1 µM; binder
Chain of TRKB (Q16620 whole entry): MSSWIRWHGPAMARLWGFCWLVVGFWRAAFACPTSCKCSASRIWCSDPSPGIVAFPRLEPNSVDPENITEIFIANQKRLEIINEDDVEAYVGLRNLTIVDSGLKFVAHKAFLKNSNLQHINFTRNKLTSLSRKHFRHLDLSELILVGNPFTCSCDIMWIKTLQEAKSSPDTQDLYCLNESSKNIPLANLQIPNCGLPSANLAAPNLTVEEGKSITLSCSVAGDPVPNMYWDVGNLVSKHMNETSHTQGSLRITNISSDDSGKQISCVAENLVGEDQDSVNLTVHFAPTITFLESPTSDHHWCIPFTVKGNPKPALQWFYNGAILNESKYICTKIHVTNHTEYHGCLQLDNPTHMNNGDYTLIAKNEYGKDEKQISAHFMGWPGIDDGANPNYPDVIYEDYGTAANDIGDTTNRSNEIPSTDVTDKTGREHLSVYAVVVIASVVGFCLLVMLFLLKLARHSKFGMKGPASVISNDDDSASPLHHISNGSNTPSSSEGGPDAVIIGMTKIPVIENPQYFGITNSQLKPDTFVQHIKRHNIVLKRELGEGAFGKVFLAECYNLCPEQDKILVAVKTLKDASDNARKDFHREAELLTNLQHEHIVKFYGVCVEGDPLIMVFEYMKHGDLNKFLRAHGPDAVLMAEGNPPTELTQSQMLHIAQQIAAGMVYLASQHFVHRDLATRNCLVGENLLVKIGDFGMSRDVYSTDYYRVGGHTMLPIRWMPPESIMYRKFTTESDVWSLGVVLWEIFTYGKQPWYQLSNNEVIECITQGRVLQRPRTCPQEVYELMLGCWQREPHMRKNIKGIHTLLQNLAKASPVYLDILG

[18] = molecular target: IRAK3 (Homo sapiens, UniProt Q9Y616); settings: 0.1 µM; binder
Chain of IRAK3 (Q9Y616 whole entry): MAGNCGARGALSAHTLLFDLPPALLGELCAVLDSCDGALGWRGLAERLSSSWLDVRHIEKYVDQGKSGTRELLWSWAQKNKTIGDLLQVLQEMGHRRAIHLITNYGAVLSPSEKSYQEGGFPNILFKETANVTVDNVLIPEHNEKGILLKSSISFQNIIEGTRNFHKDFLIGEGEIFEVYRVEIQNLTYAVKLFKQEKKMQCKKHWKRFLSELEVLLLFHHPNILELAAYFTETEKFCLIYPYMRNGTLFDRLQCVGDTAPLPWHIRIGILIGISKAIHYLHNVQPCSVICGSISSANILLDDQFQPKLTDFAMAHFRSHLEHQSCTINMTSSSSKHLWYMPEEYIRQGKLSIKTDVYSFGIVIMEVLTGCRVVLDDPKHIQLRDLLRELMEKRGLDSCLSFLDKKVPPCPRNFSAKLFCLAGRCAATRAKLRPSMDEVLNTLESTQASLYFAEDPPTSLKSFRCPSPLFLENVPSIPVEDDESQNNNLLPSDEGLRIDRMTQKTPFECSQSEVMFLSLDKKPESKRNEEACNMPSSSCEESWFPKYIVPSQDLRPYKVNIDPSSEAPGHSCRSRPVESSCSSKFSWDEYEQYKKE

[19] = molecular target: ZAK (Homo sapiens, UniProt Q9NYL2); settings: 0.1 µM; binder
[20] = molecular target: HIPK1 (Homo sapiens, UniProt Q86Z02); settings: 0.1 µM; binder
[21] = molecular target: SBK1 (Homo sapiens, UniProt Q52WX2); settings: 0.1 µM; binder
[22] = molecular target: PRKCQ (Homo sapiens, UniProt Q04759); settings: 0.1 µM; binder
[23] = molecular target: AURKA (Homo sapiens, UniProt O14965); settings: 0.1 µM; binder
[24] = molecular target: MAP3K15 (Homo sapiens, UniProt Q6ZN16); settings: 0.1 µM; binder
[25] = molecular target: FLT4 (Homo sapiens, UniProt P35916); settings: 0.1 µM; binder
[26] = molecular target: FER (Homo sapiens, UniProt P16591); settings: 0.1 µM; binder
[27] = molecular target: SNARK (Homo sapiens, UniProt Q9H093); settings: 0.1 µM; binder
[28] = molecular target: DYRK1A (Homo sapiens, UniProt Q13627); settings: 0.1 µM; binder
[29] = molecular target: TNK2 (Homo sapiens, UniProt Q07912); settings: 0.1 µM; binder
Chain of TNK2 (Q07912 whole entry): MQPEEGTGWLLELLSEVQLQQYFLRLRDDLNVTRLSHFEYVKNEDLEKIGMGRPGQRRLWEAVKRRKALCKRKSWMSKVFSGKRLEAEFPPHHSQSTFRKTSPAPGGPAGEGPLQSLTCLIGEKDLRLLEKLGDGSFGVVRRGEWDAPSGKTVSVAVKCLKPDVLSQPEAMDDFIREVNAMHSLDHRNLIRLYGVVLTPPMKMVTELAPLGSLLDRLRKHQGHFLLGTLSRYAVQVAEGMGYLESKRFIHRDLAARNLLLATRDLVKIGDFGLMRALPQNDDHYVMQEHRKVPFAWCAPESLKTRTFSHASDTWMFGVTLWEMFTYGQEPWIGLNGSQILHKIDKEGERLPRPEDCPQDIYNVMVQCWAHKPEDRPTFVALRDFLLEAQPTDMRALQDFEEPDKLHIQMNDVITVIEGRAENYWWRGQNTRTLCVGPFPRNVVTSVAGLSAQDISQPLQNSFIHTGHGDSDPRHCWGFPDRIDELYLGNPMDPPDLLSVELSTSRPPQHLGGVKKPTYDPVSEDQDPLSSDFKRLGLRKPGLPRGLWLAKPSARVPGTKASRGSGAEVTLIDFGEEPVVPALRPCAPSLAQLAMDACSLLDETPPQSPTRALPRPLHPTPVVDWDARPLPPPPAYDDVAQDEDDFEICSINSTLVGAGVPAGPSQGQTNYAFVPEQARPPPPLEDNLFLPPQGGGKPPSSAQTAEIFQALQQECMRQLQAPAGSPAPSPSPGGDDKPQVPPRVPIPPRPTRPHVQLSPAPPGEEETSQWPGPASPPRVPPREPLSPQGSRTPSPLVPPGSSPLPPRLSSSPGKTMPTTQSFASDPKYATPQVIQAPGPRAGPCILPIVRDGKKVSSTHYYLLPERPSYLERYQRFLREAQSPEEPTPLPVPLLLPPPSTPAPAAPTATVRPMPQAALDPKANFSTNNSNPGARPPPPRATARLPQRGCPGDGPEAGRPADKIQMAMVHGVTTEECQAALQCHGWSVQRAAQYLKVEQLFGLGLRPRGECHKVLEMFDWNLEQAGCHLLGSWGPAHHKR

[30] = molecular target: TNK1 (Homo sapiens, UniProt Q13470); settings: 0.1 µM; binder
[31] = molecular target: EPHA1 (Homo sapiens, UniProt P21709); settings: 0.1 µM; binder

Chain of SRPK1 (Q96SB4 whole entry): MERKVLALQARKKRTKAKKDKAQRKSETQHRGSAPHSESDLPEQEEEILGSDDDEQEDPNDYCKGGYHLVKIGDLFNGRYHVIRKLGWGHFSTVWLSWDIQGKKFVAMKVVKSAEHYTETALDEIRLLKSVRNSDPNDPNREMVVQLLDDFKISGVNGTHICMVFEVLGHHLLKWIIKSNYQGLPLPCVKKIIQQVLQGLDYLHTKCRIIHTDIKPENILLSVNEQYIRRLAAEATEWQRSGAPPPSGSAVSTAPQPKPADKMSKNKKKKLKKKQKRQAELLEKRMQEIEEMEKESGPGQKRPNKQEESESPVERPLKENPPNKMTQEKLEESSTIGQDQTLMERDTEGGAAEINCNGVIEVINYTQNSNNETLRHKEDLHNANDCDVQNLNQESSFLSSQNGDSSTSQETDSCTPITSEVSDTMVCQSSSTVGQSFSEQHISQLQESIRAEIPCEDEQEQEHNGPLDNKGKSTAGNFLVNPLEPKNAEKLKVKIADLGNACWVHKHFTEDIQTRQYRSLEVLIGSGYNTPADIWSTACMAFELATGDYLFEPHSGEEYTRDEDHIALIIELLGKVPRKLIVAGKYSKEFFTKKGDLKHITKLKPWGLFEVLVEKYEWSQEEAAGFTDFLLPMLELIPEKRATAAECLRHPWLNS

## CNc1ncc2cc(-c3ccc(-c4cccc(C)n4)cc3Cl)c(=O)n(C[C@H]3OC[C@H](N)CO3)c2n1 [compound 6, G-5555]
[1]
  Percent Control: 100%
[2]
  Percent Control: 100%
[3]
  Percent Control: 99%
[4]
  Percent Control: 94%
[5]
  Percent Control: 100%
[6]
  Percent Control: 100%
[7]
  Percent Control: 29%
[8]; nonphosphorylated
  Percent Control: 86%
[8]; phosphorylated
  Percent Control: 97%
[9]
  Percent Control: 100%
[10]
  Percent Control: 100%
[11]
  Percent Control: 100%
[12]
  Percent Control: 100%
[13]
  Percent Control: 100%
[14]
  Percent Control: 100%
[15]
  Percent Control: 100%
[16]
  Percent Control: 64%
[17]
  Percent Control: 100%
[18]
  Percent Control: 95%
[19]
  Percent Control: 97%
[20]
  Percent Control: 100%
[21]
  Percent Control: 98%
[22]
  Percent Control: 81%
[23]
  Percent Control: 98%
[24]
  Percent Control: 72%
[25]
  Percent Control: 100%
[26]
  Percent Control: 100%
[27]
  Percent Control: 19%
[28]
  Percent Control: 100%
[29]
  Percent Control: 92%
[30]
  Percent Control: 100%
[31]
  Percent Control: 64%
